In patent US20090036448A1, “PYRIMIDINE DERIVATIVES AND METHODS OF TREATMENT RELATED TO THE USE THEREOF” (TAISHO PHARMECUTICAL CO., LTD., priority 2004, published 2009) one finds class data, which are given here for 29 molecules.

In this experiment the target is MCH receptor (Homo sapiens, UniProt Q99705). In words: Receptor binding assay with Radiolabelled MCH Ligand. Also on record: expressed in transfected cells; host or cells: 293 cells (human kidney, ATCC), transient transfection; crude membranes. As to conditions: class by percent of control at 10^-7 M or IC50. The text has this:
In addition to the methods described herein, another means for evaluating a test compound is by determining binding affinities to the MCH receptor. This type of assay generally requires a radiolabelled ligand to the MCH receptor. Absent the use of known ligands for the MCH receptor and radiolabels thereof, compounds of Formula (I) can be labelled with a radioisotope and used in an assay for evaluating the affinity of a test compound to the MCH receptor.
A radiolabelled MCH compound of Formula (I) can be used in a screening assay to identify/evaluate compounds. In general terms, a newly synthesized or identified compound (i.e., test compound) can be evaluated for its ability to reduce binding of the “radiolabelled compound of Formula (I)” to the MCH receptor. Accordingly, the ability to compete with the “radio-labelled compound of Formula (I)” or Radiolabelled MCH Ligand for the binding to the MCH receptor directly correlates to its binding affinity of the test compound to the MCH receptor.
293 cells (human kidney, ATCC), transiently transfected with 10 μg human MCH receptor and 60 μl Lipofectamine (per 15-cm dish), are grown in the dish for 24 hours (75% confluency) with a media change and removed with 10 mL/dish of Hepes-EDTA buffer (20 mM Hepes+10 mM EDTA, pH 7.4). The cells are then centrifuged in a Beckman Coulter centrifuge for 20 minutes, 17,000 rpm (JA-25.50 rotor). Subsequently, the pellet is resuspended in 20 mM Hepes+1 mM EDTA, pH 7.4 and homogenized with a 50-mL Dounce homogenizer and again centrifuged. After removing the supernatant, the pellets can be stored at −80° C., until used in binding assay. When used in the assay, membranes are thawed on ice for 20 minutes and then 10 mL of incubation buffer (20 mM Hepes, 1 mM MgCl2, 100 mM NaCl, pH 7.4) added. The membranes are then vortexed to resuspend the crude membrane pellet and homogenized with a Brinkmann PT-3100 Polytron homogenizer for 15 seconds at setting 6. The concentration of membrane protein is determined using the BRL Bradford protein assay.
For total binding, a total volume of 50 ul of appropriately diluted membranes (diluted in assay buffer containing 50 mM Tris HCl (pH 7.4), 1 mM MgCl2, and 1 mM EDTA; 5-50 ug protein) is added to 96-well polyproylene microtiter plates followed by addition of 100 μl of assay buffer and 50 μl of Radiolabelled MCH Ligand. For nonspecific binding, 50 μl of assay buffer is added instead of 100 μl and an additional 50 μl of 10 uM cold MCH is added before 50 μl of Radiolabelled MCH Ligand is added. Plates are then incubated at room temperature for 60-120 minutes. The binding reaction is terminated by filtering assay plates through a Microplate Devices GF/C Unifilter filtration plate with a Brandell 96-well plate harvester followed by washing with cold 50 mM Tris HCl, pH 7.4 containing 0.9% NaCl. Then, the bottom of the filtration plate are sealed, 50 ul of Optiphase Supermix is added to each well, the top of the plates are sealed, and plates are counted in a Trilux MicroBeta scintillation counter. For compound competition studies, instead of adding 100 μl of assay buffer, 100 μl of appropriately diluted test compound is added to appropriate wells followed by addition of 50 μl of Radiolabelled MCH Ligand.
The test compounds are initially assayed at 1 and 0.1 μM and then at a range of concentrations chosen such that the middle dose would cause about 50% inhibition of a Radiolabelled MCH Ligand binding (i.e., IC50). Specific binding in the absence of test compound (BO) is the difference of total binding (BT) minus non-specific binding (NSB) and similarly specific binding (in the presence of test compound) (B) is the difference of displacement binding (BD) minus non-specific binding (NSB). IC50 is determined from an inhibition response curve, logit-log plot of % B/BO vs. concentration of test compound.
Ki is calculated by the Cheng and Prustoff transformation: […]

MCH receptor, sequence (Q99705 whole entry): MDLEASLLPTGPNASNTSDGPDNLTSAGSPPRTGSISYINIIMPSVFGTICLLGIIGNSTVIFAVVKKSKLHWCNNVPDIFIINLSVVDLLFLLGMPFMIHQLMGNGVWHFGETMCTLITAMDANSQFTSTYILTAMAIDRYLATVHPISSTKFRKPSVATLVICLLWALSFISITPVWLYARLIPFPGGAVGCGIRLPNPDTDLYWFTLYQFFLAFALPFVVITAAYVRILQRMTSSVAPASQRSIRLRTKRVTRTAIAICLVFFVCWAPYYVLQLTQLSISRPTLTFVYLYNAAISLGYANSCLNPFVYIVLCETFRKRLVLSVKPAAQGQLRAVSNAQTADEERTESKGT

Take `Cc1nc(N[C@H]2CC[C@@H](NC(=O)C3CC(=O)c4ccccc43)CC2)cc(N(C)C)n1` (relative stereo) [compound 299]: the class is 3 (Class 3: The value of percent of control at 10^−7 M was more than 60% or the value of IC50 was more than 200 nM.).

Turning to `Cc1nc(N[C@H]2CC[C@@H](NC(=O)c3cccc4c3-c3ccccc3C4=O)CC2)cc(N(C)C)n1` [compound 247], the class is 3 (Class 3: The value of percent of control at 10^−7 M was more than 60% or the value of IC50 was more than 200 nM.).

Consider `Cc1nc(N[C@H]2CC[C@@H](NC(=O)/C=C/c3ccc(OC(F)(F)F)cc3)CC2)cc(N(C)C)n1` [compound 269], for which the class is on record as 3 (Class 3: The value of percent of control at 10^−7 M was more than 60% or the value of IC50 was more than 200 nM.).

Turning to `Cc1nc(N[C@H]2CC[C@@H](NC(=O)c3cccc4c(=O)c(C)c(-c5ccccc5)oc34)CC2)cc(N(C)C)n1` [compound 320], the class is 3 (Class 3: The value of percent of control at 10^−7 M was more than 60% or the value of IC50 was more than 200 nM.).

For `Cc1nc(N[C@H]2CC[C@@H](NC(=O)Cc3csc4ccccc34)CC2)cc(N(C)C)n1` [compound 338], the class was 3 (Class 3: The value of percent of control at 10^−7 M was more than 60% or the value of IC50 was more than 200 nM.).

In the case of `Cc1ccc(-c2cc(C(=O)N[C@H]3CC[C@@H](Nc4cc(N(C)C)nc(C)n4)CC3)cs2)cc1` [compound 288], the class is listed as 3 (Class 3: The value of percent of control at 10^−7 M was more than 60% or the value of IC50 was more than 200 nM.).

As for `Cc1cc(C)c(NC(=O)N[C@H]2CC[C@@H](Nc3cc(N(C)C)nc(C)n3)CC2)c(C)c1` [compound 417], the class is listed as 3 (Class 3: The value of percent of control at 10^−7 M was more than 60% or the value of IC50 was more than 200 nM.).

For the molecule `COc1ccccc1OC(=O)N[C@H]1CC[C@@H](Nc2cc(N(C)C)nc(C)n2)CC1` [compound 456], the class is 3 (Class 3: The value of percent of control at 10^−7 M was more than 60% or the value of IC50 was more than 200 nM.).

In the case of `Cc1nc(N[C@H]2CC[C@@H](NC(=O)COc3ccccc3)CC2)cc(N(C)C)n1` [compound 234], the class was 3 (Class 3: The value of percent of control at 10^−7 M was more than 60% or the value of IC50 was more than 200 nM.).

As for `Cc1nc(N[C@H]2CC[C@@H](NCc3ccc(SC(F)(F)F)cc3)CC2)cc(N(C)C)n1` [compound 405], the class is reported as 3 (Class 3: The value of percent of control at 10^−7 M was more than 60% or the value of IC50 was more than 200 nM.).

On to `Cc1nc(N[C@H]2CC[C@@H](NCC3(c4ccc(Cl)cc4)CCCC3)CC2)cc(N(C)C)n1` [compound 365], for which the class is on record as 3 (Class 3: The value of percent of control at 10^−7 M was more than 60% or the value of IC50 was more than 200 nM.).

As for `Cc1nc(N[C@H]2CC[C@@H](NCc3ccc(N(C)C)cc3)CC2)cc(N(C)C)n1` [compound 368], the class is listed as 3 (Class 3: The value of percent of control at 10^−7 M was more than 60% or the value of IC50 was more than 200 nM.).

With `Cc1nc(N[C@H]2CC[C@@H](NCCc3ccccc3)CC2)cc(N(C)C)n1` [compound 382], the class was 3 (Class 3: The value of percent of control at 10^−7 M was more than 60% or the value of IC50 was more than 200 nM.).

Take `Cc1nc(N[C@H]2CC[C@@H](NCc3cnn(-c4ccc([N+](=O)[O-])cc4)c3C(F)(F)F)CC2)cc(N(C)C)n1` [compound 380]: the class is 3 (Class 3: The value of percent of control at 10^−7 M was more than 60% or the value of IC50 was more than 200 nM.).

Consider `Cc1nc(N[C@H]2CC[C@@H](NC(=O)Cc3ccccc3C(=O)Nc3ccc(OC(F)(F)F)cc3)CC2)cc(N(C)C)n1` [compound 297], for which the class is recorded as 3 (Class 3: The value of percent of control at 10^−7 M was more than 60% or the value of IC50 was more than 200 nM.).

Consider `Cc1nc(N[C@H]2CC[C@@H](NC(=O)C(C)c3ccc(-c4ccccc4)c(F)c3)CC2)cc(N(C)C)n1` (relative stereo) [compound 284], for which the class is 3 (Class 3: The value of percent of control at 10^−7 M was more than 60% or the value of IC50 was more than 200 nM.).

As to `Cc1nc(N[C@H]2CC[C@@H](NC(=O)CC3CCCC3)CC2)cc(N(C)C)n1` [compound 257], the class is 3 (Class 3: The value of percent of control at 10^−7 M was more than 60% or the value of IC50 was more than 200 nM.).

Turning to `Cc1nc(N[C@H]2CC[C@@H](NC(=O)CSc3ccncc3)CC2)cc(N(C)C)n1` [compound 302], the class is recorded as 3 (Class 3: The value of percent of control at 10^−7 M was more than 60% or the value of IC50 was more than 200 nM.).

Turning to `Cc1nc(N[C@H]2CC[C@@H](NS(=O)(=O)c3cccc(OC(F)(F)F)c3)CC2)cc(N(C)C)n1` [compound 492], the class is given as 3 (Class 3: The value of percent of control at 10^−7 M was more than 60% or the value of IC50 was more than 200 nM.).

Turning to `CCc1cccc(C)c1NC(=O)N[C@H]1CC[C@@H](Nc2cc(N(C)C)nc(C)n2)CC1` [compound 421], the class is given as 3 (Class 3: The value of percent of control at 10^−7 M was more than 60% or the value of IC50 was more than 200 nM.).

In the case of `Cc1nc(N[C@H]2CC[C@@H](NS(=O)(=O)CCc3cccc4ccccc34)CC2)cc(N(C)C)n1` [compound 477], the class is given as 3 (Class 3: The value of percent of control at 10^−7 M was more than 60% or the value of IC50 was more than 200 nM.).

As to `Cc1nc(N[C@H]2CC[C@@H](NC(=O)c3cc(C)n(Cc4cccs4)c3C)CC2)cc(N(C)C)n1` [compound 283], the class is given as 3 (Class 3: The value of percent of control at 10^−7 M was more than 60% or the value of IC50 was more than 200 nM.).

As to `Cc1nc(N[C@H]2CC[C@@H](NCC3CCCC3)CC2)cc(N(C)C)n1` [compound 398], the class is on record as 3 (Class 3: The value of percent of control at 10^−7 M was more than 60% or the value of IC50 was more than 200 nM.).

`Cc1nc(N[C@H]2CC[C@@H](NC(=O)Oc3cccc(C(F)(F)F)c3)CC2)cc(N(C)C)n1` [compound 454]: the class is listed as 3 (Class 3: The value of percent of control at 10^−7 M was more than 60% or the value of IC50 was more than 200 nM.).

Regarding `Cc1nc(N[C@H]2CC[C@@H](NC(=O)c3cnn(-c4ccccc4)c3C(F)(F)F)CC2)cc(N(C)C)n1` [compound 238], the class was 3 (Class 3: The value of percent of control at 10^−7 M was more than 60% or the value of IC50 was more than 200 nM.).

Take `Cc1nc(N[C@H]2CC[C@@H](NCCOc3ccc(C(C)(C)C)cc3)CC2)cc(N(C)C)n1` [compound 400]: the class is 3 (Class 3: The value of percent of control at 10^−7 M was more than 60% or the value of IC50 was more than 200 nM.).

For the molecule `Cc1nc(N[C@H]2CC[C@@H](NCc3ccccc3)CC2)cc(N(C)C)n1` [compound 354], the class is on record as 3 (Class 3: The value of percent of control at 10^−7 M was more than 60% or the value of IC50 was more than 200 nM.).

As for `Cc1nc(N[C@H]2CC[C@@H](NCc3ccc(-c4ccccc4)cc3)CC2)cc(N(C)C)n1` [compound 355], the class is reported as 3 (Class 3: The value of percent of control at 10^−7 M was more than 60% or the value of IC50 was more than 200 nM.).

Turning to `Cc1nc(N[C@H]2CC[C@@H](NC(=O)CCC(=O)c3ccc(S(C)(=O)=O)cc3)CC2)cc(N(C)C)n1` [compound 292], the class is 3 (Class 3: The value of percent of control at 10^−7 M was more than 60% or the value of IC50 was more than 200 nM.).
